From US20240366577A1, “CONTROLLED LONG-TERM DRUG DELIVERY AND METHODS THEREOF” (THE JOHNS HOPKINS UNIVERSITY, priority 2021, published 2024)
Read-outs that look alike come from different tables or passages of the source.

Tests used:
[1] = tested on: foreign body and immune rejection responses to implanted biomedical devices; conditions: rodents; cited from earlier work
[2] = tested on: foreign body and immune rejection responses to implanted biomedical devices; conditions: non-human primates; cited from earlier work
[3] = in vitro release under accelerated release conditions; format: physicochemical; conditions: 37° C., PBS+0.3% SDS, 2.9 mg drug, 12-day time course; amorphous vs 50 μm vs 150-200 μm crystals
From the text: After crystals visibly stopped precipitating or growing, the vessel was submerged in an ultrasonic water bath for 10-30 seconds to dislodge crystals from the vessel sidewall and break them into more a uniform size distributions, either smaller fines, for example 50 μm, or between 150-200 μm, as measured by brightfield and scanning electron microscopy, shown in FIGS. 2A-2B. Resultant product was then removed from the supernatant mother solution, dried, weighed, and stored for later use. On average, yielded crystal was approximately 40% of the starting powder. Furthermore, methods exist to quantify solubilized material, typically using optics to identify changes in light transmittance, and enabled testing of crystal stability in a range of aqueous solutions. […] To simulate cumulative drug release over time, all 3 mL supernatant volumes were removed and replaced with completely fresh release media at desired times of 1 hr, 4 hr, 6 hr, 8 hr, 10 hr, 1 day, 2 days, 5 days, 7 days, 10 days and 12 days, and 200 μL aliquots were measured in individual wells of a 96-well plate at 266 nm to determine solubilize sorafenib release, as shown in FIG. 2D.
Release studies were carried out under accelerated conditions in PBS with 0.3% w/v SDS in 1X PBS. […] Drug concentration in samples was measured using a UV-calibrated Tecan infinite M200 PRO. […]

[4] = SD rats; cited from earlier work
[5] = tested on: alpha Smooth Muscle actin (aSMact); experiment: immunofluorescent staining of tumors: aSMact; format: in vivo, BALB/c mice; conditions: daily bolus IP 25 mg/kg/day
Protocol: (§1) To confirm the effects seen at the level of RNA, immunofluorescent staining of excised tumor samples that were in parallel fixed with paraformaldehyde and embedded in paraffin was performed. […] Co-localization of CD31 with aSMact was, as expected, not linked in crystal sorafenib-treated tumors, where CD31 reduction was more extensive than with daily, bolus sorafenib.
(§2) Immunofluorescence imaging was used to determine anti-angiogenic drug efficacy. Tumor tissues were retrieved from mice and fixed overnight using 4% paraformaldehyde at 4° C. After fixation, retrieved tissue samples were moved to 70% ethanol. Samples were then processed for paraffin embedding, sectioning and staining. […] Next, tissues were incubated for 1 hour in an immunostaining cocktail solution consisting of NucBlue (Thermo), specific marker probes (1:200 dilution) anti-CD31 (Cat#DIA-310, HistoBioTec) and anti-alphaSmoothMuscle actin-Cy3 (Sigma) in Dako staining buffer. For CD31, a goat anti-rat alexa-fluor647 secondary antibody was also used (1:400). After staining, samples were rinsed again with 1X PBS three times prior to slides being cover slipped with Pro-long anti-fade Gold (Thermo). […] For stain quantification, images were converted into 8-bit image files, a background threshold was determined using NIH ImageJ, and then all images were processed using an NIH ImageJ macro to quantify the area of positive stain. […]

caspase-3/7 = experiment: Caspase-Glo 3/7 of tumor lysates; format: in vivo, BALB/c mice; conditions: daily bolus regimen; tumors at end of study
Protocol: as §1
Caspase activity was determined using the Caspase-Glo 3/7 assay kit and the manufacturer's protocol, with the following modifications. Protein samples (prepared by sonication probe in NP40 lysis buffer (Cat#FNN0021, Thermo)+Halt protease inhibitor cocktail (Cat#78425, Thermo)) were prepared in a 96-well plate following BCA assay (Cat#23225, Pierce/Thermo) protein quantification ([…] in 50 μl) were incubated with 50 μl of reconstituted caspase 3/7 substrate. After a brief shaking, the plate was incubated at room temperature for 1 hr and luciferase activity was determined using a BioTek Synergy 2 plate reader (Biotek; Winooski, VT).

[6] = tested on: macrophage Cd68 and myeloid Cd11b; experiment: qPCR of retrieved tumors: immune markers; format: in vivo, BALB/c mice; conditions: daily IP bolus 25 mg/kg BW/day
MDA-MB-231 = conditions: 30 mg/kg bodyweight daily oral, cited from earlier work
4T1 tumors = experiment: orthotopic parent 4T1 TNBC tumor growth; format: in vivo, BALB/c mice; conditions: daily IP bolus 25 mg/kg BW/day, dissolved in ~60% DMSO
Protocol: Namely, 4T1 tumors were treated with either PBS (PBS CONTROL), intraperitoneal (IP) bolus sorafenib (25 mg/kg BW/day) (IP BOLUS), 3 mg IP injected sorafenib crystals (IP CRYSTAL 3 MG), or sorafenib crystals (3 mg: SC CRYSTAL (3 MG); 10 mg: SC CRYSTAL (10 MG)) injected around developed tumors in the subcutaneous (SC) mammary fatpad. Furthermore, to truly test the utility of crystalline sorafenib in treating such an aggressive TNBC model, treatment was carried out retrospectively and only started once tumor volumes reached ˜225-250 mm^3. A positive control liquid-dissolved and daily injected drug treatment group was included, where mice were dosed with a daily bolus of 25 mg sorafenib/kg of mouse BW. […] This may be supported by our prior observation that in the IP compartment, where there is higher 10 liquid turnover as compared to the SC space, crystalline drugs usually have a faster kinetic of release over time.
4T1 or 4T1-luc2 cells were trypsinized using 0.25% Trypsin-EDTA, then diluted with the appropriate complete culture media and spun in a centrifuge at 300 g for 5 min. The supernatant was aspirated, and the pellet was re-suspended in serum-free RPMI 1640. The solution was centrifuged again, and the supernatant aspirated. Re-suspension, centrifugation, and aspiration was repeated once more. 5 mL of RPMI-1640 was then added to the pellet. 10 μL of the cell suspension was removed and mixed with 10 μL of Trypan blue stain 0.4% (ThermoFisher). Cells were counted with a Countess automated cell counter. Cell solutions were centrifuged one more time, the supernatant aspirated, and the pellet resuspended in the amount of RPMI-1640 required to achieve a concentration of 5×10^5 cells/200 μL of media. Tumor cells were then administered orthotopically in naive (and anesthetized) BALB/c mice into the right inguinal mammary fat pad 21 with 200 μL aliquots of the cell suspension, using an insulin syringe. Tumors were measured externally using a digital caliper, and volume was calculated (!″* (length * height) *−length * height). Except in the 4T1-luc2 trial, treatment began once tumors reached an average volume of 220-250 mm3. Experimental end point was deemed when solid tumors reached a volume of no more than 2000 mm3. Tumors were extracted and harvested, half stored in 4% paraformaldehyde diluted from 32% (Cat#50980495, Electron Microscopy Services) with DI H2O, and half frozen in liquid nitrogen, then stored at −80° C.
Once tumors had reached an average volume of ˜220-250 mm^3, mice were administered either subcutaneously or intraperitoneally with 3 or 10 mg of crystalline sorafenib, diameter ˜150-200 μm, suspended in 200 μL of sterile saline using an 18 g needle. […]

tumor endothelial CD31 = experiment: immunofluorescent staining of tumors: CD31; format: in vivo, BALB/c mice; conditions: daily bolus IP 25 mg/kg/day
Protocol: as §1, §2

[7] = body weight of treated tumor-bearing mice; format: in vivo, BALB/c mice; conditions: daily 25 mg/kg bolus in ~60% DMSO solvent solution
Protocol: However, due to the highly hydrophobic nature of sorafenib, its daily 25 mg/kg bolus dosing regimen required regular used of a solvent solution made up of ˜60% of the strong organic solvent dimethylsulfoxide (DMSO). […] In stark contrast, no DMSO was required for delivery of sorafenib crystals, for which instead simply utilized ˜100-200 μl of saline to inject into the desired IP or SC tissue sites.
Once tumors had reached an average volume of ˜220-250 mm^3, mice were administered either subcutaneously or intraperitoneally with 3 or 10 mg of crystalline sorafenib, diameter ˜150-200 μm, suspended in 200 μL of sterile saline using an 18 g needle. As a control, mice (n=4) were dosed with sorafenib dissolved at a concentration of 4 mg/mL in a solution of 65% DMSO (remainder DPBS). Mice were dosed either subcutaneously or intraperitoneally with a bolus of 25 mg drug per kg of bodyweight (BW), daily. As a secondary control, mice were dosed with the 65% DMSO/PBS vehicle to monitor changes in body score based on the vehicle alone.

4T1 = conditions: 20-60 mg/kg dosing; cited from earlier work

For `COc1ccc(COc2ccc(Cc3cnc(N)nc3N)cc2OC)cc1` [GW2580], the “duration of suppression of foreign body and immune rejection responses” value [1] is listed as “over 1.3 years” and the “duration of suppression of foreign body and immune rejection responses” value [2] is listed as ≥ 6 months.
In the case of `CNC(=O)c1cc(Oc2ccc(NC(=O)Nc3ccc(Cl)c(C(F)(F)F)c3)cc2)ccn1` [amorphous (powder) sorafenib, sorafenib], the “release of solubilized sorafenib (cumulative)” value [3] is reported as “fastest release”.
For `CO[C@H]1C[C@@H]2CC[C@@H](C)[C@@](O)(O2)C(=O)C(=O)N2CCCC[C@H]2C(=O)O[C@H]([C@H](C)C[C@@H]2CC[C@@H](O)[C@H](OC)C2)CC(=O)[C@H](C)/C=C(\C)[C@@H](O)[C@@H](OC)C(=O)[C@H](C)C[C@H](C)/C=C/C=C/C=C/1C` [crystalline rapamycin, rapamycin], the “inflammatory activity / biocompatibility” value [4] is given as “no inflammatory activity”.
For `CNC(=O)c1cc(Oc2ccc(NC(=O)Nc3ccc(Cl)c(C(F)(F)F)c3)cc2)ccn1` [sorafenib], the “tumor aSMact levels (immunofluorescence)” value [5] was “significant reduction”, the “apoptotic index (caspase-3/7 levels in tumor lysates)” value (caspase-3/7) was “significantly increased” and the “Cd68 and Cd11b expression levels (qPCR)” value [6] was “no significant changes”. The tumor reduction (MDA-MB-231; after 9 days) was 42%, the angiogenic inhibition (MDA-MB-231) was “significant angiogenic inhibition” and the tumor volumes (4T1 tumors) was “slight dip in tumor volumes”. The “tumor endothelial CD31 levels (immunofluorescence)” value (tumor endothelial CD31) was “significant reduction”, the body weight loss [7] was 15-20% and the “effects on tumor growth” value (4T1) was “negligible effects”. For the same molecule, the “recruitment/polarization of CD206+ F4/80+ M2 macrophages” value (4T1) was “higher recruitment/polarization”.
